Results on 16 compounds are retold here after patent US10611759B2, “Glutaminase inhibitors” (Rhizen Pharmaceuticals SA, priority 2014, dated 2020).

Like-named read-outs stand apart in the source and are kept apart here.

One series concerns MDA-MB-231. The series can be described thus: In vitro cell proliferation assay (MTT), MDA-MB-231. The class given is cell-based. Particulars: Homo sapiens, 72 hours. On the procedure: Assay 4: In Vitro Cell Proliferation Assay in Cancer Cell Lines
Growth inhibition assays were carried out using 10% FBS supplemented media. Cells were seeded at a concentration of 5000-20,000 cells/well in a 96-well plate. Test compounds at a concentration range from 0.01 to 10000 nM were added after 24 hours. Growth was assessed using the 3-[4,5-dimethylthiazol-2-yl]-2,5-diphenyltetrazolium bromide (MTT) dye reduction test at 0 h (prior to the addition of the test compound) and 72 hours after the addition of test compound. Absorbance was read on a Fluostar Optima (BMG Labtech, Germany) at a wave length of 450 nm. Data were analysed using GraphPad Prism and percent inhibition due to the test compound compared to the control was calculated accordingly.

The next series deals with T1, Glutaminase(Brain) (Mus musculus, UniProt D3Z7P3).
T1 sequence (D3Z7P3 55-674): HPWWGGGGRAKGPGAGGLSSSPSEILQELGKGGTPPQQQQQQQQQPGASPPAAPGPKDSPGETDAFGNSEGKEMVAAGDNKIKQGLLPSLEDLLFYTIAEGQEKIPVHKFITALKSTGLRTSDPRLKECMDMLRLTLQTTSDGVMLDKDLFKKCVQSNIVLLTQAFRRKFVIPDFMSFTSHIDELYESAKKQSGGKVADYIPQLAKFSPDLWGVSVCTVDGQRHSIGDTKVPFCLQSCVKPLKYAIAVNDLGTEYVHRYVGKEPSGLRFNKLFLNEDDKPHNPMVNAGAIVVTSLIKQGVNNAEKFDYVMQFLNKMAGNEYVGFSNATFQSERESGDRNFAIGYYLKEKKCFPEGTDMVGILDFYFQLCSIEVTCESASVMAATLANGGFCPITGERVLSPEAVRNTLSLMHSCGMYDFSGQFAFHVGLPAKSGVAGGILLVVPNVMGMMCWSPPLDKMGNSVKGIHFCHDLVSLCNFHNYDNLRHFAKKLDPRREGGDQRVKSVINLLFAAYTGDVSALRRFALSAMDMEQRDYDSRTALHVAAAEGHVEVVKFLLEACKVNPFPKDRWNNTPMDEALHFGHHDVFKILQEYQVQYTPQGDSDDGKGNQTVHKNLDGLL
The series can be described thus: Glutaminase enzyme activity using glutaminase enzyme from mice brain/kidney homogenate (Nessler's reagent, ammonia). Particulars: for inhibition at 0.1 µM: read-out: Glutaminase(Brain) activity % inhibition 0.1 μM; for inhibition at 1 µM: read-out: Glutaminase(Brain) activity % inhibition @1 μM. The class given is biochemical. On the procedure:
Assay 3: Determination of Glutaminase Enzyme Activity Using Glutaminase Enzyme from Mice Brain/Kidney
Step 1: Preparation of Tissue Homogenates:
Male Balb/c mice were administered 0.28 M ammonium chloride in drinking water for 7 days. The animals were sacrificed and brain/kidney organs collected on dry ice. […] The tissue was homogenized and supernatants were stored at −80° C. until the enzyme assay was performed.
Aim: Compounds were assessed for their ability to inhibit the enzymatic activity of L-glutaminase present in mice brain/kidney homogenate.
Protocol: The assay was performed using a colorimetric method using Nessler's Reagent by quantifying the amount of ammonia formed as a by product during the enzymatic conversion of L-glutamine to glutamate. In the routine assay, 16 μl of tissue homogenate is added to 33 μl of Tris-Hcl phosphate buffer (pH 8) along with 1 μl of DMSO/test compound containing the desired final concentration and vortexed briefly. 50 μl of 20 mM L-glutamine Tris buffer is added to start the reaction and incubated for 15 minutes at 37° C. The ammonia formed is detected by adding 20 μl of reaction mixture to cold water in a 96 well plate followed by 20 μl of Nessler's reagent. The colour developed is measured at 450 nm. Data Analysis: Activity of the test compound is reported as % inhibition and the data is analyzed using Graphpad Prism (Graphpad software; San Diego Calif.) for IC50 determination.

One may read the GI50 as the concentration that inhibits growth by half. A lower GI50 goes with greater sensitivity of the cells. What is called inhibition is the relative decrease from the control value, in per cent. `O=C(Cc1cccc(OC(F)(F)F)c1)Nc1ccc(N2CCC(c3nnc(NC(=O)Cc4cccnc4)s3)CC2)nn1` [Example-10, 2-(Pyridin-3-yl)-N-(5-(1-(6-(2-(3-(trifluoromethoxy)phenyl)acetamido)pyridazin-3-yl)piperidin-4-yl)-1,3,4-thiadiazol-2-yl)acetamide] displayed a GI50 in the series with MDA-MB-231 of 100 to 250 nM. Besides, the inhibition at 0.1 µM on Glutaminase(Brain) (0.1 μM, mice brain homogenate) was in the range of 50 to 75%. Besides, the inhibition at 1 µM at Glutaminase(Brain) (1 μM, mice brain homogenate) was 75 to 100%.
In the same order, the values of `O=C(Cc1cccc(OC(F)(F)F)c1)Nc1ccc(N2CCC(c3nnc(NC(=O)Cc4cccnc4)s3)CC2)cn1` [Example-4, 2-(Pyridin-3-yl)-N-(5-(1-(6-(2-(3-(trifluoromethoxy)phenyl)acetamido)pyridin-3-yl)piperidin-4-yl)-1,3,4-thiadiazol-2-yl)acetamide] are 250 to 500 nM, 25 to 50% and 50 to 75%.
As to `CS(=O)(=O)Nc1cccc(CC(=O)Nc2nnc(C3CCN(c4ccc(NC(=O)Cc5cccc(OC(F)(F)F)c5)nn4)CC3)s2)c1` [Example-11, 2-(3-(Methylsulfonamido)phenyl)-N-(5-(1-(6-(2-(3-(trifluoromethoxy)phenyl)acetamido)pyridazin-3-yl)piperidin-4-yl)-1,3,4-thiadiazol-2-yl)acetamide], the GI50 in the series on MDA-MB-231 is 250 to 500 nM. Further, at Glutaminase(Brain) (0.1 μM, mice brain homogenate), the inhibition at 0.1 µM was less than 25%. Moreover, the inhibition at 1 µM on Glutaminase(Brain) (1 μM, mice brain homogenate) fell in the range of 50 to 75%.
In turn, `O=C(Cc1ccccn1)Nc1ccc(N2CCC(c3nnc(NC(=O)Cc4cccc(OC(F)(F)F)c4)s3)CC2)nn1` [Example-17, 2-(Pyridin-2-yl)-N-(6-(4-(5-(2-(3-(trifluoromethoxy)phenyl)acetamido)-1,3,4-thiadiazol-2-yl)piperidin-1-yl)pyridazin-3-yl)acetamide] had a GI50 in the series on MDA-MB-231 of less than 100 nM. Also, at Glutaminase(Brain), the inhibition at 0.1 µM lay in the range of 75 to 100% and the inhibition at 1 µM is 75 to 100%.
In the case of `O=C(Cc1ccccc1F)Nc1ccc(N2CCC(c3nnc(NC(=O)Cc4ccccn4)s3)CC2)nn1` [Example-14, 2-(2-Fluorophenyl)-N-(6-(4-(5-(2-(pyridin-2-yl)acetamido)-1,3,4-thiadiazol-2-yl)piperidin-1-yl)pyridazin-3-yl)acetamide], the GI50 in the series on MDA-MB-231 was less than 100 nM. Also, the inhibition at 0.1 µM on Glutaminase(Brain) (0.1 μM, mice brain homogenate) lay within 75 to 100%. In addition, the inhibition at 1 µM on Glutaminase(Brain) (1 μM, mice brain homogenate) fell in the range of 75 to 100%.
In the case of `O=C(Cc1cccc(OC(F)(F)F)c1)Nc1ccc(N2CCCC(c3nnc(NC(=O)Cc4cccnc4)s3)C2)cn1` (racemic) [Example 3, (RS)-2-(Pyridin-3-yl)-N-(5-(1-(6-(2-(3-(trifluoromethoxy)phenyl)acetamido)pyridin-3-yl)piperidin-3-yl)-1,3,4-thiadiazol-2-yl)acetamide], the GI50 in the series with MDA-MB-231 fell in the range of 1000 to 3000 nM. The inhibition at 0.1 µM on Glutaminase(Brain) (0.1 μM, mice brain homogenate) is 25 to 50%. Besides, the inhibition at 1 µM at Glutaminase(Brain) (1 μM, mice brain homogenate) lay in the range of 50 to 75%.
For `O=C(Cc1cccc(OC(F)(F)F)c1)Nc1ccc(N2CCCC(c3nnc(NC(=O)Cc4ccccn4)s3)C2)nn1` (stereo not shown) [Example-9, 2-(Pyridin-2-yl)-N-(5-(1-(6-(2-(3-(trifluoromethoxy)phenyl)acetamido)pyridazin-3-yl)piperidin-3-yl)-1,3,4-thiadiazol-2-yl)acetamide], the GI50 in the series with MDA-MB-231 is 100 to 250 nM. On Glutaminase(Brain), the inhibition at 0.1 µM was in the range of 50 to 75% and the inhibition at 1 µM lay in the range of 75 to 100%.
With `O=C(Cc1ccccn1)Nc1ccc(N2CCC(c3nnc(NC(=O)Cc4ccccc4Cl)s3)CC2)nn1` [Example-27, 2-(2-Chlorophenyl)-N-(5-(1-(6-(2-(pyridin-2-yl)acetamido)pyridazin-3-yl)piperidin-4-yl)-1,3,4-thiadiazol-2-yl)acetamide], the inhibition at 0.1 µM at Glutaminase(Brain) (0.1 μM, mice brain homogenate) was 50 to 75%. Also, the inhibition at 1 µM on Glutaminase(Brain) (1 μM, mice brain homogenate) fell in the range of 75 to 100%.
In turn, `O=C(Cc1cccc(OC(F)(F)F)c1)Nc1ccc(N2CCC(c3nnc(NC(=O)Cc4cnccn4)s3)CC2)nn1` [Example-15, 2-(Pyrazin-2-yl)-N-(5-(1-(6-(2-(3-(trifluoromethoxy)phenyl)acetamido)pyridazin-3-yl)piperidin-4-yl)-1,3,4-thiadiazol-2-yl)acetamide] registered a GI50 with MDA-MB-231 of less than 100 nM. Also, the inhibition at 0.1 µM at Glutaminase(Brain) (0.1 μM, mice brain homogenate) is 50 to 75%. The inhibition at 1 µM at Glutaminase(Brain) (1 μM, mice brain homogenate) is 75 to 100%.
The corresponding values for `O=C(Cc1cccnc1)Nc1ccc(N2CCC(c3nnc(NC(=O)Cc4cccc(OC(F)(F)F)c4)s3)CC2)nn1` [Example-18, 2-(Pyridin-3-yl)-N-(6-(4-(5-(2-(3-(trifluoromethoxy)phenyl)acetamido)-1,3,4-thiadiazol-2-yl)piperidin-1-yl)pyridazin-3-yl)acetamide] are less than 100 nM, 75 to 100% and 75 to 100%.
Take `O=C(Cc1ccccn1)Nc1ccc(N2CCC(c3nnc(NC(=O)Cc4cc(Cl)ccc4C(F)(F)F)s3)CC2)nn1` [Example-28, 2-(5-Chloro-2-(trifluoromethyl)phenyl)-N-(5-(1-(6-(2-(pyridin-2-yl)acetamido)pyridazin-3-yl)piperidin-4-yl)-1,3,4-thiadiazol-2-yl)acetamide]: the inhibition at 0.1 µM on Glutaminase(Brain) (0.1 μM, mice brain homogenate) was 50 to 75%. The inhibition at 1 µM on Glutaminase(Brain) (1 μM, mice brain homogenate) lay within 50 to 75%.
Consider `O=C(Cc1cccc(OC(F)(F)F)c1)Nc1ccc(N2CCC(c3nnc(NC(=O)Cc4ccccn4)s3)CC2)cn1` [Example 1, 2-(Pyridin-2-yl)-N-(5-(1-(6-(2-(3-(trifluoromethoxy)phenyl)acetamido)pyridin-3-yl)piperidin-4-yl)-1,3,4-thiadiazol-2-yl)acetamide], for which, on Glutaminase(Brain), the inhibition at 0.1 µM is less than 25% and the inhibition at 1 µM was in the range of 50 to 75%.
Regarding `O=C(Cc1ccccn1)Nc1ccc(N2CCC(c3nnc(NC(=O)Cc4ccc(F)cc4)s3)CC2)nn1` [Example-25, 2-(4-Fluorophenyl)-N-(5-(1-(6-(2-(pyridin-2-yl)acetamido)pyridazin-3-yl)piperidin-4-yl)-1,3,4-thiadiazol-2-yl)acetamide], the inhibition at 0.1 µM at Glutaminase(Brain) (0.1 μM, mice brain homogenate) fell in the range of 50 to 75%. The inhibition at 1 µM on Glutaminase(Brain) (1 μM, mice brain homogenate) is 75 to 100%.
As for `O=C(Cc1ccccc1Cl)Nc1ccc(N2CCC(c3nnc(NC(=O)Cc4ccccn4)s3)CC2)nn1` [Example-12, 2-(2-Chlorophenyl)-N-(6-(4-(5-(2-(pyridin-2-yl)acetamido)-1,3,4-thiadiazol-2-yl)piperidin-1-yl)pyridazin-3-yl)acetamide], the 50% growth inhibitory concentration (GI50) in the series on MDA-MB-231 is less than 100 nM. Also, the inhibition at 0.1 µM on Glutaminase(Brain) (0.1 μM, mice brain homogenate) was in the range of 50 to 75%. Further, the inhibition at 1 µM on Glutaminase(Brain) (1 μM, mice brain homogenate) lay in the range of 75 to 100%.
`O=C(Cc1cccc(OC(F)(F)F)c1)Nc1ccc(N2CCCC(c3nnc(NC(=O)Cc4ccccn4)s3)C2)cn1` (single isomer, unassigned) [Example 2A, (R) or (S) 2-(Pyridin-2-yl)-N-(5-(1-(6-(2-(3-(trifluoromethoxy)phenyl)acetamido)pyridin-3-yl)piperidin-3-yl)-1,3,4-thiadiazol-2-yl)acetamide]: the inhibition at 0.1 µM on Glutaminase(Brain) (0.1 μM, mice brain homogenate) is less than 25%. For the same compound, on Glutaminase(Brain) (1 μM, mice brain homogenate), the inhibition at 1 µM was less than 25%.
A word on the melting point: it is the temperature, or range, at which the solid turns liquid. In turn, `O=C(Cc1ccccn1)Nc1ccc(N2CCCC(c3nnc(NC(=O)Cc4cccc(OC(F)(F)F)c4)s3)C2)cn1` (stereo not shown) [Example-7, 2-(Pyridin-2-yl)-N-(5-(3-(5-(2-(3-(trifluoromethoxy)phenyl)acetamido)-1,3,4-thiadiazol-2-yl)piperidin-1-yl)pyridin-2-yl)acetamide] showed a melting point of 151 to 153 °C. The inhibition at 0.1 µM on Glutaminase(Brain) (0.1 μM, mice brain homogenate) is less than 25%. For the same compound, at Glutaminase(Brain) (1 μM, mice brain homogenate), the inhibition at 1 µM was less than 25%.
